ChEMBL document CHEMBL3046486, “Insights into the structural requirement of 6-nitroquinolone-3-carboxylic acids as antimycobacterial agent: chemometric approaches” (2012)

Tested on: Mycobacterium tuberculosis
Assay: Antimycobacterial activity against Mycobacterium tuberculosis by NCCLS agar dilution method
Format: functional

Structure (SMILES) | -logMIC
CC(C)(C)n1cc(C(=O)O)c(=O)c2cc([N+](=O)[O-])c(N3CCN(C(c4ccccc4)c4ccc(Cl)cc4)CC3)cc21 (stereo unspecified) | 5.264
CC(C)(C)NC(=O)C1c2ccccc2CCN1c1cc2c(cc1[N+](=O)[O-])c(=O)c(C(=O)O)cn2-c1ccc(F)cc1 (stereo unspecified) | 5.252
O=C(O)c1cn(-c2ccc(F)cc2)c2cc(N3CCN(C(c4ccccc4)c4ccc(Cl)cc4)CC3)c([N+](=O)[O-])cc2c1=O (stereo unspecified) | 4.992
Cc1onc(-c2c(F)cccc2F)c1C(=O)N1CCN(c2cc3c(cc2[N+](=O)[O-])c(=O)c(C(=O)O)cn3-c2ccc(F)cc2)CC1 | 5.306
O=C(O)c1cn(-c2ccc(F)cc2)c2cc(N3CCN(C(=O)C4COc5ccccc5O4)CC3)c([N+](=O)[O-])cc2c1=O (stereo unspecified) | 5.565
O=C(O)c1cn(-c2ccc(F)cc2)c2cc(N3CCC(N4CCCCC4)CC3)c([N+](=O)[O-])cc2c1=O | 5.199
O=C(O)c1cn(-c2ccc(F)cc2)c2cc(N3CCSCC3)c([N+](=O)[O-])cc2c1=O | 4.837
CC(C)(C)n1cc(C(=O)O)c(=O)c2cc([N+](=O)[O-])c(N3CCSCC3)cc21 | 5.097
CC(C)(C)n1cc(C(=O)O)c(=O)c2cc([N+](=O)[O-])c(N3CCn4cc(C(=O)O)nc4C3)cc21 | 5.163
CC1CN(c2cc3c(cc2[N+](=O)[O-])c(=O)c(C(=O)O)cn3C2CC2)CC(C)O1 (stereo unspecified) | 5.697
O=C(O)c1cn(-c2ccc(F)cc2)c2cc(N3CCN(Cc4ccc5c(c4)OCO5)CC3)c([N+](=O)[O-])cc2c1=O | 5.545
O=C(O)c1cn(C2CC2)c2cc(N3CCN(C(c4ccccc4)c4ccc(Cl)cc4)CC3)c([N+](=O)[O-])cc2c1=O (stereo unspecified) | 5.253
O=C(O)c1cn(-c2ccc(F)cc2)c2cc(N3CCN(C(=O)c4ccco4)CC3)c([N+](=O)[O-])cc2c1=O | 5.209
CC1CN(c2cc3c(cc2[N+](=O)[O-])c(=O)c(C(=O)O)cn3-c2ccc(F)cc2)CC(C)O1 (stereo unspecified) | 5.452
O=C(O)c1cn(C2CC2)c2cc(N3CCC(O)(c4ccc(Cl)cc4)CC3)c([N+](=O)[O-])cc2c1=O | 6.092
CCN(CC)C(=O)C1CCCN(c2cc3c(cc2[N+](=O)[O-])c(=O)c(C(=O)O)cn3-c2ccc(F)cc2)C1 (stereo unspecified) | 5.213

Structure (SMILES) | -logMIC
O=C(O)c1cn(C2CC2)c2cc(N3CCC(N4CCCCC4)CC3)c([N+](=O)[O-])cc2c1=O | 6.367
CC(C)(C)n1cc(C(=O)O)c(=O)c2cc([N+](=O)[O-])c(N3CCC(n4c(=O)[nH]c5cc(Cl)ccc54)CC3)cc21 | 5.237
CC(C)(C)n1cc(C(=O)O)c(=O)c2cc([N+](=O)[O-])c(N3CCC4(CC3)OCCO4)cc21 | 5.128
CC(C)(C)n1cc(C(=O)O)c(=O)c2cc([N+](=O)[O-])c(N3CCN(C(=O)c4ccco4)CC3)cc21 | 5.175
CCN(CC)C(=O)C1CCCN(c2cc3c(cc2[N+](=O)[O-])c(=O)c(C(=O)O)cn3C(C)(C)C)C1 (stereo unspecified) | 5.179
O=C(O)c1cn(-c2ccc(F)cc2)c2cc(N3CCC4(CC3)OCCO4)c([N+](=O)[O-])cc2c1=O | 5.176
O=C(O)c1cn(C2CC2)c2cc(N3CCN(C(=O)C4COc5ccccc5O4)CC3)c([N+](=O)[O-])cc2c1=O (stereo unspecified) | 5.524
COc1ccc(CC2C3=C(CCCC3)CCN2c2cc3c(cc2[N+](=O)[O-])c(=O)c(C(=O)O)cn3-c2ccc(F)cc2)cc1 (stereo unspecified) | 5.271
O=C(O)c1cn(-c2ccc(F)cc2)c2cc(N3CCC(n4c(=O)[nH]c5cc(Cl)ccc54)CC3)c([N+](=O)[O-])cc2c1=O | 5.266
CC(C)(C)n1cc(C(=O)O)c(=O)c2cc([N+](=O)[O-])c(N3CCN(Cc4ccc5c(c4)OCO5)CC3)cc21 | 5.513
O=C(O)c1cn2c(n1)CN(c1cc3c(cc1[N+](=O)[O-])c(=O)c(C(=O)O)cn3-c1ccc(F)cc1)CC2 | 4.92
CC(C)(C)NC(=O)C1c2ccccc2CCN1c1cc2c(cc1[N+](=O)[O-])c(=O)c(C(=O)O)cn2C1CC1 (stereo unspecified) | 5.81
CN1CCN(c2cc3c(cc2[N+](=O)[O-])c(=O)c(C(=O)O)cn3C(C)(C)C)CC1c1ccccc1 (stereo unspecified) | 4.793
O=C(O)c1cn(C2CC2)c2cc(N3CCSCC3)c([N+](=O)[O-])cc2c1=O | 5.38
CCN(CC)C(=O)C1CCCN(c2cc3c(cc2[N+](=O)[O-])c(=O)c(C(=O)O)cn3C2CC2)C1 (stereo unspecified) | 5.466
